Tests used:
Experiment in all cases: drug sensitivity score (DSS3, normalised partial AUC of % inhibition dose-response) (DSS (score)); higher = more sensitive (stronger inhibition of viability); extreme values may be limits of the assay
FMOC02_1 = patient-derived low-grade serous ovarian cancer cells; details: 72 h; library: FO5A; assay format: 2D, 384-well, CellTiter-Glo
Outline: (§1)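 Patient-derived ovarian cancer cells (early passage, under 10) were dispensed onto 384-well flat clear-bottom plates pre-plated with compounds at five concentrations covering a 10,000-fold range. Plates were incubated 72 h at 37 °C, 5% CO2, and viability was read with CellTiter-Glo. Data were processed in Breeze. The drug sensitivity score (DSS3) is a partial area under the percent-inhibition dose-response curve, divided by the log of the upper asymptote; higher means more sensitive.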

FMOC02_2 = patient-derived low-grade serous ovarian cancer cells; details: 72 h; library: FO5A; assay format: 2D, 384-well, CellTiter-Glo
Outline: as §1

FMOC02_3 = patient-derived low-grade serous ovarian cancer cells; details: 72 h; library: FO5A; assay format: 2D, 384-well, CellTiter-Glo
Outline: as §1

FMOC03 = patient-derived mucinous ovarian cancer cells; details: 72 h; library: FO5A; assay format: 2D, 384-well, CellTiter-Glo
Outline: as §1

FMOC04 = patient-derived high-grade serous ovarian cancer cells; details: 72 h; library: FO5A; assay format: 2D, 384-well, CellTiter-Glo
Outline: as §1

FMOC06 = patient-derived mucinous ovarian cancer cells; details: 72 h; library: FO5A; assay format: 2D, 384-well, CellTiter-Glo
Outline: as §1

FMOC09 = patient-derived high-grade serous ovarian cancer cells; details: 72 h; library: FO5A; assay format: 2D, 384-well, CellTiter-Glo
Outline: as §1

FMOC11 = patient-derived high-grade serous ovarian cancer cells; details: 72 h; library: FO5A; assay format: 2D, 384-well, CellTiter-Glo
Outline: as §1

FMOC14 = patient-derived high-grade serous ovarian cancer cells; details: 72 h; library: FO5A; assay format: 2D, 384-well, CellTiter-Glo
Outline: as §1

FMOC17 = patient-derived low-grade serous ovarian cancer cells; details: 72 h; library: FO5A; assay format: 2D, 384-well, CellTiter-Glo
Outline: as §1

FMOC22 = patient-derived mucinous ovarian cancer cells; details: 72 h; library: FO5A; assay format: 2D, 384-well, CellTiter-Glo
Outline: as §1

FMOC24 = patient-derived high-grade serous ovarian cancer cells; details: 72 h; library: FO5A; assay format: 2D, 384-well, CellTiter-Glo
Outline: as §1

FMOC25_1 = patient-derived low-grade serous ovarian cancer cells; details: 72 h; library: FO4B; assay format: 2D, 384-well, CellTiter-Glo
Outline: as §1

FMOC25_2 = patient-derived low-grade serous ovarian cancer cells; details: 72 h; library: FO5A; assay format: 2D, 384-well, CellTiter-Glo
Outline: as §1

FMOC27 = patient-derived low-grade serous ovarian cancer cells; details: 72 h; library: FO5A; assay format: 2D, 384-well, CellTiter-Glo
Outline: as §1

FMOC28 = patient-derived low-grade serous ovarian cancer cells; details: 72 h; library: FO5A; assay format: 2D, 384-well, CellTiter-Glo
Outline: as §1

| Structure (SMILES) | drug sensitivity score (FMOC02_1) | drug sensitivity score (FMOC02_2) | drug sensitivity score (FMOC02_3) | drug sensitivity score (FMOC03) | drug sensitivity score (FMOC04) | drug sensitivity score (FMOC06) | drug sensitivity score (FMOC09) | drug sensitivity score (FMOC11) | drug sensitivity score (FMOC14) | drug sensitivity score (FMOC17) | drug sensitivity score (FMOC22) | drug sensitivity score (FMOC24) | drug sensitivity score (FMOC25_1) | drug sensitivity score (FMOC25_2) | drug sensitivity score (FMOC27) | drug sensitivity score (FMOC28) |
| --- | --- | --- | --- | --- | --- | --- | --- | --- | --- | --- | --- | --- | --- | --- | --- | --- |
| N[C@@H]1CCCN(c2c(/C=C3\SC(=O)NC3=O)cccc2-c2ccccc2)C1 [AZD1208] | 1 | 0 | 5.9 | 0 | 0 | 4.7 | 3.2 | 0 | 0 | 0 | 0 | 0 | 0.5 | 2.4 | 0 | 0 |
| Cc1ccc(NC(=O)c2ccc(CN3CCN(C)CC3)cc2)cc1Nc1nc(-c2cccnc2)cs1 [Masitinib] | 2.8 | 2.4 | 4.8 | 3.6 | 0.9 | 4.4 | 2.7 | 3.9 | 5.4 | 4.2 | 2.6 | 5.6 | 2.2 | 3.9 | 0 | 1.2 |
| CCN1CCN(Cc2ccc(Nc3ncc(F)c(-c4cc(F)c5nc(C)n(C(C)C)c5c4)n3)nc2)CC1 [Abemaciclib] | 7 | 6.6 | 11.6 | 2.3 | 0.35 | 4 | 2.1 | 0.8 | 0.1 | 3.4 | 0 | 1.7 | 0.1 | 7.5 | 3.2 | 0 |
| Cc1c(N)nc([C@H](CC(N)=O)NC[C@H](N)C(N)=O)nc1C(=O)N[C@H](C(=O)N[C@H](C)[C@@H](O)[C@H](C)C(=O)N[C@H](C(=O)NCCc1nc(-c2nc(C(=O)NCCC[S+](C)C)cs2)cs1)[C@@H](C)O)[C@@H](OC1OC(CO)C(O)C(O)C1OC1OC(CO)C(O)C(OC(N)=O)C1O)c1cnc[nH]1 (stereo partly specified) [Bleomycin] | 3.1 | 4.3 | 8.8 | 0.7 | 0 | 3.1 | 3.2 | 3.4 | 0.1 | 3.4 | 0.8 | 5.65 | 9 | 3.2 | 2.4 | 2.9 |
| CC(=O)N(O)CCCCCNC(=O)CCC(=O)N(O)CCCCCNC(=O)CCC(=O)N(O)CCCCCN [Deferoxamine] | 0 | 0 | 0.2 | 4.1 | 0 | 1.4 | 1.4 | 4.5 | 1.2 | 0 | 1.1 | 0 | 1.1 | 0 | 0 | 0 |
| CO[C@H]1C[C@@H]2CC[C@@H](C)[C@@](O)(O2)C(=O)C(=O)N2CCCC[C@H]2C(=O)O[C@H]([C@H](C)C[C@@H]2CC[C@@H](O)[C@H](OC)C2)CC(=O)[C@H](C)/C=C(\C)[C@@H](O)[C@@H](OC)C(=O)[C@H](C)C[C@H](C)/C=C/C=C/C=C/1C [Sirolimus] | 6.3 | 7.3 | 10 | 2 | 1.1 | 2.5 | 1.4 | 2.1 | 1 | 4.7 | 4 | 6.1 | 8.9 | 6.3 | 3.1 | 3.3 |
| CN1CCc2c(c3ccccc3n2Cc2ccc(C(=O)NO)cc2)C1 [Tubastatin A] | 2.9 | 1.4 | 3.4 | 0.5 | 1.4 | 0 | 0.5 | 1.7 | 1.3 | 0 | 0.8 | 0.85 | 0 | 1.3 | 0 | 2.8 |
| C[C@]1(c2nc3c(C(N)=O)cccc3[nH]2)CCCN1 [Veliparib] | 0.4 | 1.6 | 3.2 | 0 | 0 | 0 | 0 | 0 | 0 | 0 | 0 | 1.3 | 0.1 | 1.6 | 1.4 | 0 |
| NCCNc1ccc(NCCN)c2c1C(=O)c1ccncc1C2=O [Pixantrone] | 0 | 0 | 1.5 | 0 | 0.2 | 0 | 0 | 1.7 | 0 | 0.9 | 0 | 0 | 0.7 | 1.8 | 0 | 1.6 |
| CC[C@H](Nc1ncnc2[nH]cnc12)c1nc2cccc(F)c2c(=O)n1-c1ccccc1 [Idelalisib] | 2.3 | 2.4 | 3.7 | 0.4 | 0.1 | 2.7 | 2 | 1.9 | 0 | 2.8 | 0.1 | 0 | 1.4 | 1.1 | 0.4 | 3.3 |
| COCC1(CO)C(=O)C2CCN1CC2 (stereo unspecified) [APR-246] | 0 | 0 | 0 | 0 | 0 | 0 | 0 | 0 | 0 | 0 | 0 | 0.05 | 0 | 0 | 0 | 0 |

— the supplement of paper PMC9938120
